Measured values taken from patent US9499493B2, “2,4-pyrimidinediamine compounds and their uses” (Rigel Pharmaceuticals, Inc., priority 2002, dated 2016).
Where a name gives a salt, the structure may show the parent alone.

tested on: cultured human mast cells (CHMC); experiment: CHMC low cell density ionomycin activation: tryptase assay; assay type: cell-based; settings: not given

Row | IC50 | Structure (SMILES)
1 | 10 µM | CCOC(=O)COc1ccc(Nc2nc(Nc3ccc(OCC(=O)OCC)cc3)c(NC(=O)NC(=O)CCl)c(C(=O)OCC)n2)cc1 [R926589, N2,N4-Bis(4-ethoxycarbonylmethyleneoxyphenyl)-6-ethoxycarbonyl-5-(chloroacetylaminocarbonylamino)-2,4-pyrimidinediamine]
2 | > 10 µM | OCCNc1cccc(Nc2ncc(F)c(Nc3cccc(NCCO)c3)n2)c1 [R950181, N2,N4-Bis(3-hydroxyethyleneaminophenyl)-5-fluoro-2,4-pyrimidinediamine]
3 | > 10 µM | Cc1ccc(Nc2nc(Cl)ncc2F)cc1CNC(=O)OC(C)(C)C [Compound R926924]
4 | 4 µM | COC(=O)C(C)Oc1ccc(Nc2ncc(F)c(Nc3ccc(OC(C)C(=O)OC)cc3)n2)cc1 (racemic) [R926254, (±)-N2,N4-Bis[4-methoxycarbonyl(α-methyl)methyleneoxyphenyl]-5-fluoro-2,4-pyrimidinediamine]
5 | > 10 µM | CNC(=O)COc1cccc(Nc2ncc(F)c(Nc3ccc4c(c3)N(C)CCO4)n2)c1 [R909259, 5-Fluoro-N2-[3-(N-methylaminocarbonylmethyleneoxy)phenyl]-N4-(N-methyl-1,4-benzoxazin-6-yl)pyrimidinediamine]
6 | > 10 µM | Cc1cc(Nc2nc(Cl)ncc2F)ccc1F [Compound R926921]
7 | > 10 µM | CNC(=O)COc1cccc(Nc2ncc(F)c(Nc3cccc4c3C(=O)N(C)C4=O)n2)c1 [R926856, 5-Fluoro-N2-[3-(N-methylamino)carbonylmethyleneoxyphenyl]-N4-(N-methylphthalimido-4-yl)-2,4-pyrimidinediamine]
8 | > 10 µM | CNC(=O)COc1cccc(Nc2ncc(F)c(Nc3ccc4c(c3)C(N)CCO4)n2)c1 (stereo not drawn) [R950368, N4-(4-Amino-3,4-dihydro-2H-1-benzopyran-6-yl)-5-fluoro-N2-[3-(N-methylamino)carbonylmethyleneoxyphenyl]-2,4-pyrimidinediamine]
9 | 4.17 µM | CC(C)(CO)NC(=O)COc1cccc(Nc2ncc(F)c(Nc3cccc(C(C)(C)C)c3)n2)c1 [R940308, N4-(3-tert-Butylpheny)-5-fluoro-N2-[3-(1,1-dimethyl-2-hydroxyethylaminocarbonylmethyleneoxy)-phenyl]-2,4-pyrimidinediamine]
10 | > 10 µM | CNC(=O)C(C)(Oc1cccc(Nc2ncc(F)c(Nc3ccc(OC(C)C)cc3)n2)c1)C(=O)NC [R935196, N2-[3-(1-Bis(N-methylaminocarbonyl)ethoxy)phenyl]-5-fluoro-N4-(4-isopropoxyphenyl)-2,4-pyrimidineamine]
11 | > 10 µM | Cn1ncc2cc(Nc3ncc(F)c(Nc4ccc5c(c4)OC(F)(F)O5)n3)ccc21 [R935357, N4-(3,4-Difluoromethylendioxyphenyl)-5-fluoro-N2-(1-methylindazoline-5-yl)-2,4-pyrimidinediamine]
12 | > 10 µM | CNC(=O)COc1cccc(Nc2ncc(F)c(Nc3ccc(OC)c(F)c3)n2)c1 [R926892, 5-Fluoro-N4-(3-fluoro-4-methoxyphenyl)-N2-[3-[(N-methylamino)carbonylmethyleneoxy]phenyl]-2,4-pyrimidinediamine]
13 | > 10 µM | CN(CCO)C(=O)c1cc2cc(Nc3ncc(F)c(Nc4cccc(O)c4)n3)ccc2o1 [R926725, 5-Fluoro-N4-(3-hydroxyphenyl)-N2-[2-(N-methyl-N-2-hydroxyethyl)carbonylbenzofuran-5-yl)-2,4-pyrimidinediamine]
14 | > 10 µM | O=C(c1cc2cc(Nc3ncc(F)c(Nc4ccc5c(c4)OCCO5)n3)ccc2o1)N1CCOCC1 [R926492, N4-(3,4-Ethylenedioxyphenyl)-5-fluoro-N2-[2-(N-morpholino)carbonylbenzofuran-5-yl]-2,4-pyrimidinediamine]
15 | > 10 µM | CNC(=O)COc1cc(Nc2ncc(F)c(Nc3cccc(O)c3)n2)cc(OCC(=O)NC)c1 [R926930, N2-[3,5-Bis[(N-methylamino)carbonylmethyleneoxy]phenyl]-5-fluoro-N4-(3-hydroxyphenyl)-2,4-pyrimidinediamine]
16 | > 10 µM | CNC(=O)C(C)(C)Oc1cccc(Nc2ncc(F)c(Nc3cccc(O)c3)n2)c1 [R926913, 5-Fluoro-N4-(3-hydroxyphenyl)-N2-[3-[(N-methylamino)carbonyl-1,1-dimethylmethyleneoxy]phenyl]-2,4-pyrimidinediamine]
17 | > 10 µM | COc1cc(Nc2ncc(F)c(Nc3ccc(OCc4nc(-c5ccccc5)no4)cc3)n2)cc(OC)c1OC [R935367, 5-Fluoro-N4-[4-(3-phenyl-1,2,4-oxadiazol-5-yl)methyleneoxyphenyl]-N2-(3,4,5-trimethoxyphenyl)-2,4-pyrimidinediamine]
18 | > 10 µM | CNC(=O)CCn1ncc2cc(Nc3ncc(F)c(Nc4ccc(OC(F)(F)F)c(Cl)c4)n3)ccc21 [R935369, N4-(3-Chloro-4-trifluoromethoxyphenyl)-5-fluoro-N2-[1-[2(N-methylaminocarbonyl)ethyl]indazoline-5-yl]-2,4-pyrimidinediamine]
19 | > 10 µM | COC(=O)COc1ccc(Nc2ncc(F)c(Nc3cccc(C#N)c3)n2)cc1 [R945110, N4-(3-Cyanophenyl)-5-fluoro-N2-(4-methoxycarbonylmethyleneoxyphenyl)-2,4-pyrimidinediamine]
20 | > 10 µM | Oc1cccc(Nc2ncc(F)c(Nc3ccc4c(c3)OCCO4)n2)c1 [R925796, N4-(3,4-Ethylenedioxyphenyl)-5-fluoro-N2-(3-hydroxyphenyl)-2,4-pyrimidinediamine]
21 | > 10 µM | Cc1noc(COc2ccc(Nc3nc(Nc4ccc5c(c4)OCCO5)ncc3F)cc2)n1 [R935145, N2-(3,4-Ethylenedioxyphenyl)-5-fluoro-N4-[4-(3-methyl-1,2,4-oxadiazol-5-yl)methyleneoxyphenyl]-2,4-pyrimidinediamine]
22 | > 10 µM | CNC(=O)COc1cccc(Nc2ncc(F)c(Nc3cccc(NCCO)c3)n2)c1 [R950265, N4-(3-N-Hydroxyethylaminophenyl)-5-fluoro-N2-[3-(N-methylamino)carbonylmethyleneoxyphenyl]-2,4-pyrimidinediamine]
23 | > 10 µM | CNC(=O)COc1cccc(Nc2ncc(F)c(Nc3ccc(C)c(O)c3)n2)c1 [R926753, 5-Fluoro-N4-(3-hydroxy-4-methylphenyl)-N2-[3-[(N-methylamino)carbonylmethyleneoxy]phenyl]-2,4-pyrimidinediamine]
24 | > 10 µM | CNC(=O)COc1cccc(Nc2ncc(F)c(Nc3ccc(OC)c(Cl)c3)n2)c1 [R926891, N4-(3-Chloro-4-methoxyphenyl)-5-fluoro-N2-[3-[(N-methylamino)carbonylmethyleneoxy]phenyl]-2,4-pyrimidinediamine]
25 | > 10 µM | CCOC(=O)CCn1ncc2ccc(Nc3nc(Nc4cccc(O)c4)ncc3F)cc21 [R935292, N4-[1-(2-Ethoxycarbonylethyl)indazoline-6-yl]-5-fluoro-N2-(3-hydroxyphenyl)-2,4-pyrimidinediamine]
26 | > 10 µM | N#CCOc1ccc(Nc2ncc(F)c(Nc3cccc(O)c3)n2)cc1 [R945070, N2-(4-Cyanomethyleneoxyphenyl)-5-fluoro-N4-(3-hydroxyphenyl)-2,4-pyrimidinediamine]

Row | Structure (SMILES) | IC50
27 | O=C(c1cc2cc(Nc3ncc(F)c(Nc4cccc(O)c4)n3)ccc2o1)N1CCNCC1 [R926500, 5-Fluoro-N4-(3-hydroxyphenyl)-N2-[2-(N-piperazino)carbonylbenzofuran-5-yl]-2,4-pyrimidinediamine] | > 10 µM
28 | Oc1cccc(Nc2ncc(F)c(Nc3cccc(O)c3)n2)c1 [R926461, N2,N4-Bis(3-sodiumphenoxy)-5-fluoro-2,4-pyrimidinediamine] | > 10 µM
29 | CNC(=O)COc1cccc(Nc2ncc(F)c(Nc3ccc4c(c3)OCCO4)n2)c1 [R926816, N4-(3,4-Ethylenedioxyphenyl)-5-fluoro-N2-[3-(N-methylamino)carbonylmethyleneoxyphenyl]-2,4-pyrimidinediamine Hydrogen Chloride Salt] | > 10 µM
30 | O=C(COc1cccc(Nc2ncc(F)c(Nc3ccc4c(c3)OCCO4)n2)c1)N1CCNCC1 [R926504, N4-(3,4-Ethylenedioxyphenyl)-5-fluoro-N2-[3-(N-piperazino)carbonylmethyleneoxyphenyl]-2,4-pyrimidinediamine Hydrogen Chloride Salt] | > 10 µM
31 | CNC(=O)COc1cccc(Nc2ncc(F)c(Nc3ccc4c(c3)NCCO4)n2)c1 [R920395, N4-(1,4-Benzoxazin-6-yl)-5-fluoro-N2-[3-(N-methylamino)carbonylmethyleneoxyphenyl]-2,4-pyrimidinediamine Hydrogen Chloride Salt] | > 10 µM

same assay, conditions: Homo sapiens, Mast cell

Row | IC50 | Structure (SMILES)
32 | > 10 µM | CNC(=O)CNc1cccc(Nc2ncc(F)c(Nc3cccc(O)c3)n2)c1 [R950218]

tested on: cultured human mast cells (CHMC); experiment: CHMC low cell density IgE activation: tryptase assay; assay type: cell-based; settings: anti-IgE
Method: Pellet CHMC cells (980 rpm, 10 min) and resuspend in pre-warmed MT. Add 65 ul of cells to each 96-well plate. Depending on the degranulation activity for each particular CHMC donor, load 1000-1500 cells/well. Mix four times followed by a 1 hr incubation at 37° C. […] Stimulate cells by adding 25 ul of 6× anti-IgE solution to the appropriate plates. Add 25 ul MT to un-stimulated control wells. Mix twice following addition of the anti-IgE. Incubate at 37° C. for 30 minutes. […] Spin plates at 1000 rpm for 10 min to pellet cells. Transfer 25 ul of supernatant to a 96-well black bottom plate and add 100 ul of freshly diluted tryptase substrate solution to each well. Incubate plates at room temperature for 30 min.

Row | IC50 | Structure (SMILES)
33 | 2.52 µM | CCOc1ccc(Nc2nc(Nc3cccc(OCC(=O)NC)c3)ncc2F)cc1N [R950388, N4-(3-Amino-4-ethoxyphenyl)-5-fluoro-N2-[3-(N-methylamino)carbonylmethyleneoxyphenyl]-2,4-pyrimidinediamine]
34 | 4.2 µM | CCOC(=O)C1CCN(C(=O)c2cccc(Nc3nc(Nc4cccc(OCC(=O)NC)c4)ncc3F)c2)CC1 [R926941, N4-[3-[[4-(Ethoxycarbonyl)piperidino]carbonyl]phenyl]-5-fluoro-N2-[3-[(N-methylamino)carbonylmethyleneoxy]phenyl]-2,4-pyrimidinediamine]
35 | > 10 µM | O=C(O)COc1cccc(Nc2ncc(F)c(Nc3ccc4c(c3)OCCO4)n2)c1 [R926483, N2-(3-Carboxymethyleneoxyphenyl)-N4-(3,4-ethylenedioxyphenyl)-5-fluoro-2,4-pyrimidinediamine]
36 | 10 µM | C[C@H](Nc1ncc(F)c(N[C@@H](C)[C@H](O)c2ccccc2)n1)[C@H](O)c1ccccc1 [R925767, N2,N4-Bis[(2R)-hydroxy-(1S)-methyl-2-phenylethyl]-5-fluoro-2,4-pyrimidinediamine]
